One test concerns the target human ATM (Homo sapiens (Human), UniProt Q13315). Description: Enzymatic ATM assay (RBC FRET enzyme assay). The class given is biochemical. To be noted: substrate p53, 5-point dilution starting at 10 μM. The method, then: The inhibitory activity on the isolated ATM kinase was determined by a commercial supplier (Reaction Biology Corp., PA, US) using an activity based FRET assay. Compounds were therefore first pre-incubated with human ATM before substrate (p53) and ATP were added to initiate the phosphorylation reaction. After a given time, the kinase reaction was stopped and the amount of phosphorylated substrate was quantified using standard FRET detection methods. […] Detailed assay conditions and parameters can be requested from the commercial supplier.

Test [1] relates to kras^G12D; mycOE; p53^−/− murine pancreatic cancer cells (KMP53). The test is described as follows: KMP53 cell assay (XTT cell viability with Etoposide). The class given is cell-based. Particulars: Mus musculus, 4 h pre-treatment, then 300 nM Etoposide, 46 h. The source says:
A selection of compounds was screened in a cellular assay system in two different cancer cell lines. Therefore, the cells were challenged with a generally non-cytotoxic concentration of Etoposid to induce DNA double strand breaks and the activation of the ATM pathway. The cells were further treated with different concentrations of the final compounds and viability of the cells was quantified using a standard XTT cell viability protocol. The principle of this assay lies in the fact that only alive and thus metabolically active cells are able to catalyze the reduction of XTT ((2,3-bis-(2-methoxy-4-nitro-5-sulfophenyl)-2H-tetrazolium-5-carboxanilide) by NADH from mitochondria, into formazan. The formazan product can be then detected using an absorbance-based microplate reader. The absorbance intensity measured in each well correlates to cell viability.
In brief, kras^G12D; mycOE; p53^−/− murine pancreatic cancer cells (KMP53) and Panc-1 human pancreatic ductal carcinoma cells were seeded in 96-well plates and left to attach overnight. The following day, cells were treated with serial dilutions of compound or DMSO in triplicates. The cells were first pre-treated for 4 hours with inhibitor and then 300 nM of Etoposide was added to each well. Cells were then grown under normal conditions (37° C., 95% air, 5% CO2) for 46 h. Following the incubation period, XTT solution was added to the cells containing 1 mg/ml XTT and 25 μM phenazine methosulfate (PMS) diluted in full culture medium. Cells were incubated in normal conditions for two more hours. For the determination of cell viability, absorbance at 450 nm was measured for each well. Absorbance values were then normalized to DMSO control and expressed as percentages of viability. Using software GraphPad Prism, the values were fitted in a nonlinear response curve and the IC50 values were calculated.

Molecules are shown by their SMILES. Bounds are passed on as bounds.

Chain of human ATM (Q13315 whole entry): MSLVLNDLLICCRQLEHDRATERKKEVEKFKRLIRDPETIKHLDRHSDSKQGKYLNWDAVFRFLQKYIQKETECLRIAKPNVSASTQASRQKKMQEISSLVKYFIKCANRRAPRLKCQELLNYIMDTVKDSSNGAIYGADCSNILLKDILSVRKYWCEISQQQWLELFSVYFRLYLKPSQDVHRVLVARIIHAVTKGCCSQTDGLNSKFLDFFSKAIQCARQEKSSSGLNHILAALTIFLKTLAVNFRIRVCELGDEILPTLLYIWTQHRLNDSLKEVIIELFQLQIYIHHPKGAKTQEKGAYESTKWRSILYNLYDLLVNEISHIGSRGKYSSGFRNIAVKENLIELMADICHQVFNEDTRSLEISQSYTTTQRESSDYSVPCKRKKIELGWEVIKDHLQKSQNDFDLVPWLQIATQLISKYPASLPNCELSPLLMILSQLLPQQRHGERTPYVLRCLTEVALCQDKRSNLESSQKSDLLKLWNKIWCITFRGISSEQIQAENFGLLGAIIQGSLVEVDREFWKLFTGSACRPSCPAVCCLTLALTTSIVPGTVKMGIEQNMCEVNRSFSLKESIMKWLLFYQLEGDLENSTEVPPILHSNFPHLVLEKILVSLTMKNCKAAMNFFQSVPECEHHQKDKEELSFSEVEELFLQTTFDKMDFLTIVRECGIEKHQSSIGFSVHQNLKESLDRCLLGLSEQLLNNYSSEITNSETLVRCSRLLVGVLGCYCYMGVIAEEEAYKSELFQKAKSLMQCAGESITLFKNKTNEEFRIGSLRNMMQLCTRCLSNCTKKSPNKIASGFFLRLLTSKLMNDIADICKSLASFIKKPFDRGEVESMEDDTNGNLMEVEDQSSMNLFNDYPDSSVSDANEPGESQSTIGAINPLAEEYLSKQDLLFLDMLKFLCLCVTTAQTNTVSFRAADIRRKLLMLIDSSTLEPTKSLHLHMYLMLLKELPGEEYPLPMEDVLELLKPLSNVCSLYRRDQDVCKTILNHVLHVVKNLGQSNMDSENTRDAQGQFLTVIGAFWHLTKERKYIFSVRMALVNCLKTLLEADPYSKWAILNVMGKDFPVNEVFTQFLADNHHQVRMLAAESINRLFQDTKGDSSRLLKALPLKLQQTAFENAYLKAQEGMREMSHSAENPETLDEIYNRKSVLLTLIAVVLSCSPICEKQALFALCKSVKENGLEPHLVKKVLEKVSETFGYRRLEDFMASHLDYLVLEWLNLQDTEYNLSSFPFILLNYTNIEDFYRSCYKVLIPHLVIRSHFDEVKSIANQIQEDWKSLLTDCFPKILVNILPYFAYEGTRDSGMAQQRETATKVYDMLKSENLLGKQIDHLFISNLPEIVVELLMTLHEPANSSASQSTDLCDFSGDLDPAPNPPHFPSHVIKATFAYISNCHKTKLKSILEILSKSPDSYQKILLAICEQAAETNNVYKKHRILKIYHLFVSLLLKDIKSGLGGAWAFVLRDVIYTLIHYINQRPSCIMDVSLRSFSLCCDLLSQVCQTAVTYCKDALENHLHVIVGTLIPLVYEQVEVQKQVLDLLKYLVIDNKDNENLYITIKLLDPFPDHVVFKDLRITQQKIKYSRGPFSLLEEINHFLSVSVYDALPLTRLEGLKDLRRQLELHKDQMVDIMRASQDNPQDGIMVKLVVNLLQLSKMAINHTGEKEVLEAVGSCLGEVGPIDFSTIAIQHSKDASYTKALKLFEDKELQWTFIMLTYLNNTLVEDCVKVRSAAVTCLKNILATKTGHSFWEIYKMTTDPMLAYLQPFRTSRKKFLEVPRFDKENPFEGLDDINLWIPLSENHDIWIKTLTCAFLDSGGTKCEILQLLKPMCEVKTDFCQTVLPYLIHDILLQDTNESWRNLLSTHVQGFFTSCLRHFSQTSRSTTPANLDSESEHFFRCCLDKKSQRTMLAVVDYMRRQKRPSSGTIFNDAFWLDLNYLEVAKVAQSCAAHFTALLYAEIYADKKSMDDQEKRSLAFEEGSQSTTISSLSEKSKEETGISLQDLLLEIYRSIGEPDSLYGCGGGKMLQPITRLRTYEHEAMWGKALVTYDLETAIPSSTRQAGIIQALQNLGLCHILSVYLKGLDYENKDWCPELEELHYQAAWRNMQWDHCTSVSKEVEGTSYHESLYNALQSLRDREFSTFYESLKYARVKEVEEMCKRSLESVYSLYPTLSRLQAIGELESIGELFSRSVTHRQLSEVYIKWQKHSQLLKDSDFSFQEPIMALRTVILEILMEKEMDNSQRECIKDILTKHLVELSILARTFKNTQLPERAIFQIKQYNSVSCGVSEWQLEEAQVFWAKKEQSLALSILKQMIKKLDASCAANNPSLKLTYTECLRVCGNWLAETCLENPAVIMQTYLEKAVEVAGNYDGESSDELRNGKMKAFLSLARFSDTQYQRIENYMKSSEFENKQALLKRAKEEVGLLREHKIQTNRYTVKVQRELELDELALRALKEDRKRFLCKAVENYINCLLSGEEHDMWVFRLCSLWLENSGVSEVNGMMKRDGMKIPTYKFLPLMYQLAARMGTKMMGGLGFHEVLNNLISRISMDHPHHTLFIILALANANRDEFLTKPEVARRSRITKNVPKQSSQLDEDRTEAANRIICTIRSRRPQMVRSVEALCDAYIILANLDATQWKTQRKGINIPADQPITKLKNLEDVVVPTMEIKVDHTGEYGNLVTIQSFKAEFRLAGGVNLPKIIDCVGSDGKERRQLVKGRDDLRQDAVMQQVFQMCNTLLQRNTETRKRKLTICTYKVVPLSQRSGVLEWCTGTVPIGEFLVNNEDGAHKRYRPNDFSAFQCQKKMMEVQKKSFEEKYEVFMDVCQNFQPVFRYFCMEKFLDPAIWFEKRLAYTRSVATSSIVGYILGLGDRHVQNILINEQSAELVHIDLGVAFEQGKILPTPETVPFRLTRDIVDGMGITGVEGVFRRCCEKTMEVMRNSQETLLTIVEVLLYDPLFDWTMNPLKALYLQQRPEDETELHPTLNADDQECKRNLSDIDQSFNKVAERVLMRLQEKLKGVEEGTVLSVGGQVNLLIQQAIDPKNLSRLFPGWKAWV

`COCCn1c(=O)n(C)c2cnc3ccc(-c4ccc(NC(=O)NC5CCN(C)CC5)cc4)cc3c21` [Ex. 18, 1-(4-(1-(2-Methoxyethyl)-3-methyl-2-oxo-2,3-dihydro-1H-imidazo[4,5-c]quinolin-8-yl)phenyl)-3-(1-methylpiperidin-4-yl)urea]: half-maximal inhibition on human ATM (IC50) required 4 nM.
The same measure, in the same setting: under `COCCn1c(=O)n(C)c2cnc3ccc(-c4ccc(NC(=O)N5CCC(NC(=O)OC(C)(C)C)CC5)cc4)cc3c21` [Ex. 13, tert-Butyl (1-((4-(1-(2-methoxyethyl)-3-methyl-2-oxo-2,3-dihydro-1H-imidazo[4,5-c]quinolin-8-yl)phenyl)carbamoyl)piperidin-4-yl)carbamate] stands 2.3 nM.
With `COCCn1c(=O)n(C)c2cnc3ccc(-c4ccc(NC(=O)N5CCN(C)CC5)cc4)cc3c21` [Ex. 20, N-(4-(1-(2-methoxyethyl)-3-methyl-2-oxo-2,3-dihydro-1H-imidazo[4,5-c]quinolin-8-yl)phenyl)-4-methylpiperazine-1-carboxamide], in test [1], the half-inhibitory concentration (IC50) was found to be 3800 nM.
`COCCn1c(=O)n(C)c2cnc3ccc(-c4ccc(NC(=O)NC5CN(C)C5)cc4)cc3c21` [Ex. 21, 1-(4-(1-(2-Methoxyethyl)-3-methyl-2-oxo-2,3-dihydro-1H-imidazo[4,5-c]quinolin-8-yl)phenyl)-3-(1-methylazetidin-3-yl)urea]: the IC50 at human ATM is less than 1 nM.
On to `COCCn1c(=O)n(C)c2cnc3ccc(-c4ccc(NC(=O)NCCN5CC(F)C5)cc4)cc3c21` [Ex. 50, 1-(2-(3-Fluoroazetidin-1-yl)ethyl)-3-(4-(1-(2-methoxyethyl)-3-methyl-2-oxo-2,3-dihydro-1H-imidazo[4,5-c]quinolin-8-yl)phenyl)urea], for which the values for the IC50 (on human ATM; in test [1]) were less than 1 nM and 8040 nM, respectively.
On to `COCCn1c(=O)n(C)c2cnc3ccc(-c4ccc(NC(=O)NCCN(C)C)cc4)cc3c21` [Ex. 11, 1-(2-(Dimethylamino)ethyl)-3-(4-(1-(2-methoxyethyl)-3-methyl-2-oxo-2,3-dihydro-1H-imidazo[4,5-c]quinolin-8-yl)phenyl)urea], for which the IC50 against human ATM is less than 1 nM; in test [1], 4000 nM.
For `CN(C)CCCOc1ccc(-c2ccc3ncc4nc(-c5ccco5)n(C5CCOCC5)c4c3c2)cn1` [Ex. 3, 3-((5-(2-(Furan-2-yl)-1-(tetrahydro-2H-pyran-4-yl)-1H-imidazo[4,5-c]quinolin-8-yl)pyridin-2-yl)oxy)-N,N-dimethylpropan-1-amine], in that order: less than 1 nM and 7500 nM.
For `COCCn1c(-c2ccco2)nc2cnc3ccc(-c4ccc(OCCCN(C)C)nc4)cc3c21` [Ex. 6, 3-((5-(2-(Furan-2-yl)-1-(2-methoxyethyl)-1H-imidazo[4,5-c]quinolin-8-yl)pyridin-2-yl)oxy)-N,N-dimethylpropan-1-amine dimesylate], in that order: less than 1 nM and 3420 nM.
Taken in the same sequence, the figures for `COCCn1c(=O)n(C)c2cnc3ccc(-c4ccc(NC(=O)NCCN(C)C)c(F)c4F)cc3c21` [Ex. 46, 1-(2,3-Difluoro-4-(1-(2-methoxyethyl)-3-methyl-2-oxo-2,3-dihydro-1H-imidazo[4,5-c]quinolin-8-yl)phenyl)-3-(2-(dimethylamino)ethyl)urea] were 3 nM and 8940 nM.
For the compound `COCCn1c(=O)n(C)c2cnc3ccc(-c4ccc(NC(=O)N5CCC(N(C)C)C5)cc4)cc3c21` (stereo not shown) [Ex. 25, 3-(Dimethylamino)-N-(4-(1-(2-methoxyethyl)-3-methyl-2-oxo-2,3-dihydro-1H-imidazo[4,5-c]quinolin-8-yl)phenyl)pyrrolidine-1-carboxamide], the IC50 against human ATM was 7 nM.
Regarding `CN1CCN(C(=O)Nc2ccc(-c3ccc4ncc5c(c4c3)n(C3CCOCC3)c(=O)n5C)cn2)CC1` [Ex. 8, 4-Methyl-N-(5-(3-methyl-2-oxo-1-(tetrahydro-2H-pyran-4-yl)-2,3-dihydro-1H-imidazo[4,5-c]quinolin-8-yl)pyridin-2-yl)piperazine-1-carboxamide], the IC50 stood at 2 nM against human ATM and 410 nM in test [1].
As for `COCCn1c(=O)n(C)c2cnc3ccc(-c4ccc(NC(=O)NC(C)CN(C)C)cc4)cc3c21` (racemic) [Ex. 52, (RS)-1-(1-(Dimethylamino)propan-2-yl)-3-(4-(1-(2-methoxyethyl)-3-methyl-2-oxo-2,3-dihydro-1H-imidazo[4,5-c]quinolin-8-yl)phenyl)urea], the values for the IC50 (against human ATM; in test [1]) were less than 1 nM and 5470 nM, respectively.
For `COCCn1cnc2cnc3ccc(-c4ccc(OCCCN(C)C)nc4)cc3c21` [Ex. 5, 3-((5-(1-(2-Methoxyethyl)-1H-imidazo[4,5-c]quinolin-8-yl)pyridin-2-yl)oxy)-N,N-dimethylpropan-1-amine], in that order: 3.3 nM and 3400 nM.
In turn, `COCCn1c(=O)n(C)c2cnc3ccc(-c4ccc(NC(=O)NCCN5CCC5)cc4)cc3c21` [Ex. 49, 1-(2-(Azetidin-1-yl)ethyl)-3-(4-(1-(2-methoxyethyl)-3-methyl-2-oxo-2,3-dihydro-1H-imidazo[4,5-c]quinolin-8-yl)phenyl)urea] gave a half-inhibitory concentration (IC50) against human ATM of less than 1 nM.
Take `CN(C)CCNC(=O)Nc1ccc(-c2ccc3ncc4c(c3c2)n(C2CCOCC2)c(=O)n4C)cc1` [Ex. 10, 1-(2-(Dimethylamino)ethyl)-3-(4-(3-methyl-2-oxo-1-(tetrahydro-2H-pyran-4-yl)-2,3-dihydro-1H-imidazo[4,5-c]quinolin-8-yl)phenyl)urea]: the results for the IC50 (at human ATM; in test [1]) were less than 1 nM and 1450 nM, respectively.
Taken in the same sequence, the figures for `Cc1nc2cnc3ccc(-c4ccc(OCCCN(C)C)nc4)cc3c2n1C1CCOCC1` [Ex. 2, N,N-Dimethyl-3-((5-(2-methyl-1-(tetrahydro-2H-pyran-4-yl)-1H-imidazo[4,5-c]quinolin-8-yl)pyridin-2-yl)oxy)propan-1-amine] were 2.9 nM and 8100 nM.
On to `COCCn1c(=O)n(C)c2cnc3ccc(-c4ccc(NC(=O)NCCN(C)C)c(C)c4F)cc3c21` [Ex. 48, 1-(2-(Dimethylamino)ethyl)-3-(3-fluoro-4-(1-(2-methoxyethyl)-3-methyl-2-oxo-2,3-dihydro-1H-imidazo[4,5-c]quinolin-8-yl)-2-methylphenyl)urea], for which the IC50 in test [1] was found to be 7950 nM.
On to `COCCn1c(=O)n(C)c2cnc3ccc(-c4ccc(NC(=O)NC5CCN(C(=O)OC(C)(C)C)CC5)cc4)cc3c21` [Ex. 15, tert-Butyl 4-(3-(4-(1-(2-methoxyethyl)-3-methyl-2-oxo-2,3-dihydro-1H-imidazo[4,5-c]quinolin-8-yl)phenyl)ureido)piperidine-1-carboxylate], for which the IC50 at human ATM is less than 1 nM.
For the compound `CN(C)CCCOc1ccc(-c2ccc3ncc4ncn(C5CCOCC5)c4c3c2)cn1` [Ex. 1, N,N-Dimethyl-3-((5-(1-(tetrahydro-2H-pyran-4-yl)-1H-imidazo[4,5-c]quinolin-8-yl)pyridin-2-yl)oxy)propan-1-amine], the IC50 against human ATM amounted to 2.3 nM; in test [1] it was 6900 nM.
Consider `COCCn1c(=O)n(C)c2cnc3ccc(-c4ccc(NC(=O)N5CC(N(C)C)C5)cc4)cc3c21` [Ex. 26, 3-(Dimethylamino)-N-(4-(1-(2-methoxyethyl)-3-methyl-2-oxo-2,3-dihydro-1H-imidazo[4,5-c]58uinoline-8-yl)phenyl)azetidine-1-carboxamide], for which, on human ATM, the IC50 was 4 nM.

For the origin of these results see patent US20230348462A1, “IMIDAZO[4,5-C]QUINOLINE COMPOUNDS AND THEIR USE AS ATM KINASE INHIBITORS” (Deutsches Krebsforschungszentrum, priority 2020, published 2023).
